Results reported in ChEMBL document CHEMBL4177573 (Bioorg Med Chem, 2017).
Calls of active or inactive are those of the source. No cut-off for these calls is given here.

Key:
Mus musculus [1] = assay: Drug level in C57BL/6J mouse at 1 mg/kg, iv measured during 5 mins to 24 hrs by LC/MS/MS method; type: ADME, organism-based; conditions: in vivo, read-out: Drug uptake
[2] = biological target: T1, Neuropeptide Y receptor type 2 (Rattus norvegicus, UniProt Q9ERC0); assay: Agonist activity at rat neuropeptide Y2 receptor by [35S]GTPgammaS binding assay; type: functional
T1 sequence (Q9ERC0 whole entry): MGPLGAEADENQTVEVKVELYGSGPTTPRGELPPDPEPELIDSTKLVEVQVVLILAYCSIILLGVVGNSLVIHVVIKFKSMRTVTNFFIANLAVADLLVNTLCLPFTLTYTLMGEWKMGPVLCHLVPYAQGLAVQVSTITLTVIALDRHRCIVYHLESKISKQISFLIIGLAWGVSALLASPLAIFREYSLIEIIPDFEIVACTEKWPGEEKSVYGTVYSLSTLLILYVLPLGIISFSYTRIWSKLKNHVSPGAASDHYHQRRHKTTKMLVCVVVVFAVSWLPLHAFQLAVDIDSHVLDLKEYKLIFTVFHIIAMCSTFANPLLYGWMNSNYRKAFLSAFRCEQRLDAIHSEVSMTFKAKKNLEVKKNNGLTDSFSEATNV

Mus musculus [3] = assay: Anorectic activity in overnight fasted C57BL/6J mouse assessed as inhibition of food intake at 10 nmol/kg, sc followed by re-feeding post dose and measured for 2 hrs; type: functional, organism-based
[4] = MRT in C57BL/6J mouse at 1 mg/kg, iv measured during 5 mins to 24 hrs by LC/MS/MS method; type: ADME, organism-based; conditions: in vivo
[5] = AUC (0 to 24 hrs) in C57BL/6J mouse at 1 mg/kg, sc measured during 5 mins to 24 hrs by LC/MS/MS method; type: ADME, organism-based; set-up: time < 24 hr, dose 1 mg/kg, route subcutaneous; conditions: in vivo
[6] = biological target: Neuropeptide Y receptor type 4 (Rattus norvegicus, UniProt Q63447); assay: Agonist activity at rat neuropeptide Y4 receptor by [35S]GTPgammaS binding assay; type: functional
Mus musculus [7] = assay: Anorectic activity in DIO C57BL/6J mouse assessed as reduction in cumulative food intake at 0.03 mg/kg, sc for 2 weeks dosed as continuous administration by infusion of osmotic pumps relative to untreated control; type: functional, organism-based
Mus musculus [8] = assay: Antiobesity activity in DIO C57BL/6J mouse assessed as reduction in body weight at 0.01 mg/kg, sc for 2 weeks dosed as continuous administration by infusion of osmotic pumps; type: functional; conditions: 336 h
Mus musculus [9] = assay: Anorectic activity in overnight fasted Y2R-/- C57BL/6J mouse assessed as inhibition of food intake at 10 nmol/kg, sc followed by re-feeding post dose and measured for 2 hrs; type: functional, organism-based
Mus musculus [10] = assay: Anorectic activity in C57BL/6J mouse assessed as inhibition of food intake at 0.03 to 1 mg/kg/day, sc for 3 days dosed as continuous administration by infusion using osmotic pump; type: functional, organism-based
[11] = Bioavailability in C57BL/6J mouse at 1 mg/kg, sc measured during 5 mins to 24 hrs by LC/MS/MS method; type: ADME, organism-based; conditions: in vivo
Mus musculus [12] = assay: Anorectic activity in C57BL/6J mouse assessed as inhibition of food intake at 0.03 mg/kg/day, sc for 3 days dosed as continuous administration by infusion using osmotic pump; type: functional; conditions: 72 h
Mus musculus [13] = assay: Antiobesity activity in DIO C57BL/6J mouse assessed as reduction in body weight at 1 mg/kg, sc […] for 2 weeks dosed by infusion of osmotic pumps; type: functional; conditions: 336 h
Mus musculus [14] = assay: Anorectic activity in C57BL/6J mouse assessed as inhibition of food intake at 0.3 mg/kg/day, sc dosed as […] and measured after 24 hrs; type: functional
[15] = Volume of distribution at steady state in C57BL/6J mouse at 1 mg/kg, iv measured during 5 mins to 24 hrs by LC/MS/MS method; type: ADME, organism-based; conditions: in vivo, read-out: Vdss
[16] = Total clearance in C57BL/6J mouse at 1 mg/kg, iv measured during 5 mins to 24 hrs by LC/MS/MS method; type: ADME, organism-based; conditions: in vivo
[17] = biological target: T2, Neuropeptide Y receptor type 1 (Homo sapiens, UniProt P25929); assay: Agonist activity at human neuropeptide Y1 receptor by [35S]GTPgammaS binding assay; type: functional
T2 sequence (P25929 whole entry): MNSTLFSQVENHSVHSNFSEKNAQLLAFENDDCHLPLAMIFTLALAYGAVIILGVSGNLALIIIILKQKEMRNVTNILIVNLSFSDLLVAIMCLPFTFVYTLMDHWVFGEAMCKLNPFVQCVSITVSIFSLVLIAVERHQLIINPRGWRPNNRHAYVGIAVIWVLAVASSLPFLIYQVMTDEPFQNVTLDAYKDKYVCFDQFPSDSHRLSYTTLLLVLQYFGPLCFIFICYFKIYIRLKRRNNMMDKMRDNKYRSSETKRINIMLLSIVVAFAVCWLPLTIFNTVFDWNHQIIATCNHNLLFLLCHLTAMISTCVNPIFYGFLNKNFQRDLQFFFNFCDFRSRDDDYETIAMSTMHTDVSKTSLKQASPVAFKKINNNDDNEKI

Mus musculus [18] = assay: Anorectic activity in DIO C57BL/6J mouse assessed as reduction in cumulative food intake at 0.01 mg/kg, sc for 2 weeks dosed as continuous administration by infusion of osmotic pumps relative to untreated control; type: functional, organism-based
[19] = MRT in C57BL/6J mouse at 1 mg/kg, sc measured during 5 mins to 24 hrs by LC/MS/MS method; type: ADME, organism-based; conditions: in vivo
Mus musculus [20] = assay: Antiobesity activity in DIO C57BL/6J mouse assessed as reduction in perirenal weight at 0.003 to 0.03 mg/kg, sc for 2 weeks dosed as continuous administration by infusion of osmotic pumps relative to untreated control; type: functional, organism-based
[21] = biological target: T3, Neuropeptide Y receptor type 2 (Homo sapiens, UniProt P49146); assay: Agonist activity at human neuropeptide Y2 receptor expressed in CHO cell membranes assessed as stimulation of [35S]GTPgammaS binding incubated for 120 mins by liquid scintillation counting method; type: functional
T3 sequence (P49146 whole entry): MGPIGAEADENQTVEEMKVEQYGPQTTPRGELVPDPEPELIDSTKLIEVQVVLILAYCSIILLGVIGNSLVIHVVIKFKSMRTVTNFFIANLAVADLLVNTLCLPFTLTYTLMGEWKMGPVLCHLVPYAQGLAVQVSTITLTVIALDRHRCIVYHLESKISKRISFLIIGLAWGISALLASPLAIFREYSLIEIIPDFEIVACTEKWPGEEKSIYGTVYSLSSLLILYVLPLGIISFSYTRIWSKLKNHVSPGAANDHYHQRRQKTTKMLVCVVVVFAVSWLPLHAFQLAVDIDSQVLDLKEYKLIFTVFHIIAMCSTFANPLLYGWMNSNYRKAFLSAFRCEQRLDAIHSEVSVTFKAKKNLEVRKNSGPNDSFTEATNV

Mus musculus [22] = assay: Anorectic activity in C57BL/6J mouse assessed as inhibition of food intake at 0.3 mg/kg/day, sc dosed as […] and measured after 12 hrs; type: functional
Mus musculus [23] = assay: Antiobesity activity in DIO C57BL/6J mouse assessed as reduction in body weight at 0.01 mg/kg, sc for 2 weeks dosed as continuous administration by infusion of osmotic pumps relative to untreated control; type: functional; set-up: scale not given: the % may be the effect or the level left

Neuropeptide Y receptor type 4, sequence (Q63447 whole entry, the tested form may be a part): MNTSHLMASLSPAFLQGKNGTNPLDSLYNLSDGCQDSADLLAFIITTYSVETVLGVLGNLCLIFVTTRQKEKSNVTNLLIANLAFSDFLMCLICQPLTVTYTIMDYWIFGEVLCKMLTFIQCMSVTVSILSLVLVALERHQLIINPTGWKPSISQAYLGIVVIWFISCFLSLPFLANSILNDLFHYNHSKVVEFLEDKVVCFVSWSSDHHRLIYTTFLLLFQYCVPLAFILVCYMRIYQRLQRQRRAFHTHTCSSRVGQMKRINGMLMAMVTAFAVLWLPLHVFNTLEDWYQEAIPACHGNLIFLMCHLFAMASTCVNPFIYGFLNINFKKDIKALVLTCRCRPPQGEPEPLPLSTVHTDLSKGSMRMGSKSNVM

- concentration (Mus musculus [1]): 2060 nM
- EC50 [2]: 0.038 nM
- MRT [4]: 21 min
- AUC(0-t) at 24 h [5]: 0.347 µM·h
- EC50 [6]: > 1000 nM
- bioavailability [11]: 60.2%
- Vd [15]: 0.293 L/kg
- clearance [16]: 14.2 mL/min/kg
- EC50 [17]: > 1000 nM
- MRT [19]: 33.6 min
- EC50 [21]: 0.15 nM
SMILES: CC[C@](C)(NC(=O)[C@H]1C[C@H](O)CN1C(=O)[C@H](CO)NC(=O)c1c[nH]cn1)C(=O)N[C@@H](Cc1ccncc1)C(=O)N[C@@H](CC1CCCCC1)C(=O)N[C@@H](CC(C)(C)C)C(=O)N[C@@H](CC(N)=O)C(=O)N[C@@H](CCCCN)C(=O)NC(C)(C)C(=O)N[C@H](C(=O)N[C@@H](CCCNC(=N)N)C(=O)N[C@@H](CCC(N)=O)C(=O)N[C@@H](CCCNC(=N)N)C(=O)N[C@@H](CC1CCCCC1)C(N)=O)[C@@H](C)O
- Activity (Mus musculus [3]): Active
- Activity (Mus musculus [7]): Active
- inhibition in vivo at 0.01 mg/kg (Mus musculus [8]): 8.9%
- Activity (Mus musculus [9]): inactive
- Activity (Mus musculus [10]): Dose-dependent effect
- inhibition in vivo at 0.03 mg/kg/day (Mus musculus [12]): 52%
- inhibition in vivo at 1 mg/kg (Mus musculus [13]): 7.6%
- inhibition in vivo at 0.3 mg/kg/day (Mus musculus [14]): 22%
- Activity (Mus musculus [18]): Active
- Activity (Mus musculus [20]): Active
- inhibition in vivo at 0.3 mg/kg/day (Mus musculus [22]): 41%
- Activity (Mus musculus [23]): 8.3%
